Reference: US10556860B2, “hTERT modulators and methods of use” (Arizona Board of Regents on Behalf of the University of …, priority 2015, dated 2020)

Tests used:
[1] = tested on: G138/139A mutant hTERT 5-12 fragment; test: Single-molecule laser tweezer unfolding, G138/139A mutant; assay type: biochemical, human; settings: 2 μM
Method: Single-molecule tweezer. Preparation of the DNA construct. The DNA construct that contains the single-stranded hTERT 5-12 fragment was prepared by sandwiching the target sequence between two double-stranded DNA handles. Five deoxythymidines were added at both ends of the hTERT 5-12 fragment to reduce the interference from the double-stranded DNA handles on the target sequence. Briefly, the 2690-base-pair double-stranded DNA handle was prepared through restriction enzyme digestion of the pEGFP vector (Clontech, Mountain View, Calif.). In the first step, the vector was digested by Sad and Eagl restriction enzymes, followed by purification with agarose gel. The EagI end of the DNA fragment was labeled with digoxigenin using terminal deoxynucleotidyl transferase. […]
Single-molecule force-ramp assay. […] After this, the two beads were moved apart to increase the tension on the DNA tether with a loading rate of 5.5 pN/s, and the force-extension (F-X) curves were recorded using the LabVIEW program (National Instruments Corp., Austin, Tex.).
The F-X curves were filtered by Savitzky-Golay function with a 10 ms time constant in the MATLAB program (The Math Works, Natick, Mass.). […] The change-in-contour length (ΔL) was calculated based on the Δx through the worm-like chain model (equation 1). […]

[2] = tested on: telomere length in MCF7 cells; test: Telomere length assay (qPCR) in MCF7 cells; assay type: cell-based, human; settings: 0.5 μM
Method: Telomere length assay. MCF7 cells were treated with DMSO, GTC365 for 5-10 days, or BRACO-19 for 25-30 days. Meanwhile, cells were subcultured to maintain <90% confluent. Cells were collected by cell scraper and then subjected to gDNA extraction by DNA extraction kit (Qiagen). Ten ng of gDNA was used for SYBR Green I-based qPCR assay with 1 M betaine, 700 nM telomere primers, and 200 nM 36B4 single-copy gene. A pair of Tel1 and Tel2 was used for amplification of the telomere region and a pair of 36B4F and 36B4R for amplification of a single-copy gene to normalize data. The PCR was initiated at 95° C. for 3 min and then 27 cycles at 95° C. for 3 sec and 60° C. for 2 min. The fluorescence signal at 60° C. was acquired. Triplicate data was averaged and normalized to 36B4 to obtain ΔCt. The relative telomere length was determined compared to the DMSO.
hTERT-positive MCF7 breast cancer cell lines were used to gain mechanistic insight into how the GTC365-induced inhibition of proliferation occurs. Change in relative telomere length by GTC365 was measured by qPCR with gDNA extracted from GTC365-treated MCF7 cells. After 10 days of treatment GTC365 decreased telomere length in a dose-dependent manner, and at a dose of 0.5 μM, the telomere length was reduced by 20%. In contrast, BRACO-19 reduced telomere length by ˜12% at the same concentration but required 25-30 days of treatment (FIG. 9).

[3] = tested on: hTERT core promoter (pGL3-WT); test: Luciferase assay, pGL3-WT in MCF7 cells; assay type: cell-based, human; settings: 24 h
Method: (§1) Luciferase assay. From gDNA extracted from HeLa cells, the hTERT core promoter region, including −350 bp to +12 from the transcription start site, was amplified using a pair of primers, including KpnI and NheI restriction sites, for cloning of pGL3-hTERT with WT promoter sequence. Mutant constructs were generated by PCR-based site-directed mutagenesis. The sequence of each construct was confirmed by sequencing analysis. MCF7 cells in 24-well plate were transfected with 200 ng of pGL3 construct and 5 ng of pRL-TK by Fugene® HD Transfection Reagent and then incubated for 6 h. Media were replaced by fresh ones and the cells were treated with GTC365 or BRACO-19. The same volume of DMSO served as a control. […]
(§2) Since MYC is a key transcription factor for activation of the hTERT gene by binding to an E-box in the hTERT promoter region and is one of the oncogenes having a G-quadruplex structure in the promoter region, it was important to confirm that GTC365 affects the repression of hTERT promoter activity directly by binding to the G-quadruplex structure formed in the hTERT promoter and not by binding to the G-quadruplex in the MYC promoter. To distinguish between these possibilities, the luciferase activity of the pGL3-WT and pGL3-E-box mutant constructs were determined after treatment with GTC365. […]

[4] = tested on: hTERT core promoter E-box Mut construct; test: Luciferase assay, pGL3-E-box mutant in MCF7 cells; assay type: cell-based, human; settings: 24 h
Method: as §1, §2

For `N=C(N)NCCCS(=O)(=O)Nc1ccc(Nc2c3ccccc3nc3cc([N+](=O)[O-])ccc23)cc1` [GTC365], the “population of fully folded structures” value [1] was “significantly recovered”, the “reduction of telomere length” value ([2]; 10 days) was 20% and the luciferase activity [3] was “dose-dependent decrease”. The luciferase activity [4] was “dose-dependent decrease”.
`CN(C)c1ccc(Nc2c3ccc(NC(=O)CCN4CCCC4)cc3nc3cc(NC(=O)CCN4CCCC4)ccc23)cc1` [BRACO-19, reference compound] was tested, and the “population of fully folded structures” value [1] was “minimallypromoted the fully folded structure”, the “reduction of telomere length” value ([2]; 25-30 days) was about 12% and the luciferase activity [3] was “decreased”. The luciferase activity [4] was “failed to reduce”.
